The structures appear in SMILES notation.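 Each compound was tested at five concentrations against cells in 96-well plates for 48 hours. Here, GI50 denotes the concentration required for 50% inhibition of growth.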 Activity calls are given as the source filed them. Cut-off read from the data, not from the text of the source: active = GI50 up to about 1.1 µM and inactive = higher.

From ChEMBL document CHEMBL1201862, “PubChem BioAssay data set” (2004) come the findings set out here.

Assay in all cases: NCI tumour cell line growth inhibition, 48 h
Assay [1] concerns M19-MEL.
Assay [2] relates to LXFL 529.
Assay [3] relates to DMS-114.
The test system of assay [4] is RXF 631.
For assay [5], the system named is DLD-1.
The test system of assay [6] is DMS-273.
The subject of assay [7] is XF498.
Assay [8] deals with SNB-78.
The test system of assay [9] is HOP-18.

For `CNS(=O)(=O)NN(C)S(=O)(=O)c1ccc(Br)cc1`, the GI50 in assay [1] is > 100 µM (inactive); in [2], > 100 µM (inactive); in assay [3], > 100 µM (inactive); in assay [4] it was > 100 µM (inactive); in [5], > 10 µM (inactive); in [6], > 100 µM (inactive). Moreover, the GI50 in assay [7] is > 100 µM (inactive).
In the case of `COC(=O)c1c(-c2ccccc2)sc(-c2cccc3ccccc23)c1C(=O)OC`, the GI50 in assay [1] is > 100 µM (inactive); in [2], > 100 µM (inactive); in [8], > 100 µM (inactive); in assay [5] it was 18 µM (inactive); in [9] it was > 100 µM (inactive); in assay [6] it was > 100 µM (inactive).
Consider `Cc1c(/C=N/NC(=O)c2cc(Br)cc(Br)c2O)c(=O)n(-c2ccccc2)n1C`, for which the GI50 in assay [1] is > 100 µM (inactive); in assay [2], 75.9 µM (inactive); in [3], 38.5 µM (inactive); in [8] it was > 100 µM (inactive); in assay [5], 67.1 µM (inactive); in assay [6], 5.25 µM (inactive). Moreover, in assay [7], the GI50 was 17.6 µM (inactive).
For the compound `COC1=CC(=O)C2C(C1=O)[C@@H]1c3ccccc3OC(C)(C)[C@H]21` (stereo not given in full), the GI50 was 20.2 µM (inactive) in assay [1]; 18.7 µM (inactive) in assay [2]; 20.7 µM (inactive) in assay [3]; 18.8 µM (inactive) in [8]; 19.2 µM (inactive) in assay [5]; 22.9 µM (inactive) in assay [6]. In addition, the GI50 in assay [7] is 18.1 µM (inactive).
Consider `NC(=O)C(=Cc1ccc(CP(=O)(O)O)cc1)C(N)=O`, for which the GI50 in assay [1], in assay [2], in [3], in assay [8], in [5] and in assay [9] was > 100 µM (inactive) each time. For the same compound, the GI50 in assay [6] and in assay [7] was > 100 µM (inactive) throughout.
Turning to `O=C(CC1C(=O)Nc2ccccc2S1(=O)=O)Nc1cccc(Cl)c1` (stereo not given), the GI50 is 19.1 µM (inactive) in [1]; 17.2 µM (inactive) in [2]; 16.1 µM (inactive) in assay [3]; 59.7 µM (inactive) in [8]; 19.9 µM (inactive) in assay [4]; 17.5 µM (inactive) in assay [5]. Also, the GI50 in [6] is 14.5 µM (inactive); in assay [7], 21.3 µM (inactive).
In the case of `NC(CCc1ncc(-c2ccccc2)s1)C(=O)O` (stereo not given), the GI50 in [2], in assay [3], in [8], in assay [4], in [5] and in [9] was > 100 µM (inactive) in each case. The GI50 in [6] was > 100 µM (inactive).
`CCC1NCC(=O)c2c1[nH]c1ccccc21` (stereo not given): the GI50 in assay [1], in assay [2], in [3], in assay [8], in assay [5] and in [9] was > 100 µM (inactive) each time. Moreover, in [6], the GI50 was > 100 µM (inactive).
`O=C1OC2C(O)COC2(O)C1(O)C(C[N+](=O)[O-])c1ccc(Cl)cc1` (stereo not given): the GI50 in [1] was 2.5 µM (inactive); in assay [2], 1.95 µM (inactive); in [3] it was 2.76 µM (inactive); in assay [8], 13.8 µM (inactive); in assay [5], 1.81 µM (inactive); in assay [9] it was 9.02 µM (inactive). Further, the GI50 in assay [6] is 3.3 µM (inactive).
`CCOC(=O)C1=C(O)C(=O)c2cc(C)ccc2C1=O`: the GI50 is 16.6 µM (inactive) in [1]; > 100 µM (inactive) in [3]; > 100 µM (inactive) in assay [8]; > 100 µM (inactive) in [5]; 45.5 µM (inactive) in assay [9]; > 100 µM (inactive) in [6]. In addition, in assay [7], the GI50 was > 100 µM (inactive).
Take `Cc1c(C(=O)CSc2nc3cc([N+](=O)[O-])ccc3[nH]2)c(=O)n(-c2ccccc2)n1C`: the GI50 in assay [1], in assay [2], in [3], in assay [5], in assay [6] and in assay [7] was > 100 µM (inactive) each time.
Regarding `Cc1c(N2CCOCC2)nc2ccc(Cl)cc2c1-c1ccccc1`, the GI50 is 85.7 µM (inactive) in assay [1]; 61.2 µM (inactive) in assay [2]; 70.1 µM (inactive) in assay [3]; > 100 µM (inactive) in assay [8]; 59.8 µM (inactive) in assay [6].
On to `CCOP(=O)(OCC)/C(C#N)=C\c1ccc(OC(C)=O)cc1`, for which the GI50 in assay [1], in [2], in assay [3], in [8], in assay [5] and in [9] was > 100 µM (inactive) throughout. Further, the GI50 in assay [7] was > 100 µM (inactive).
On to `Cc1cc2c(=O)c3ccc(Cl)cc3[nH]c2c(C(N)=O)c1C`, for which the GI50 in assay [1], in [2], in assay [3], in assay [8], in assay [4] and in [5] was > 100 µM (inactive) throughout. Also, the GI50 in [6] and in assay [7] was > 100 µM (inactive) each time.
As to `COC(=O)/C(C#N)=C(\N)C(Cl)(Cl)Cl`, the GI50 in assay [1] is 2.43 µM (inactive); in [2] it was 2.7 µM (inactive); in [3], 3.73 µM (inactive); in assay [8], 6.18 µM (inactive); in assay [4], 2.78 µM (inactive); in [5], 1.17 µM (inactive). In addition, the GI50 is 3.45 µM (inactive) in assay [6] and 1.78 µM (inactive) in assay [7].
As to `C[N+](C)(C)CC1CCCC1=O` (stereo not given), the GI50 in [1] was 2.22 µM (inactive); in [2] it was 1.26 µM (inactive); in assay [3], 3.24 µM (inactive); in assay [8], 3.24 µM (inactive); in assay [4] it was 14.2 µM (inactive); in assay [5], 1.01 µM (active). Further, the figures for the GI50 in assay [9], in assay [6] and in assay [7] were 1.87 µM (inactive), 6.87 µM (inactive) and 1.87 µM (inactive), respectively.
Regarding `CCCN1CN(C(C(=O)N[C@@H]2C(=O)N3C2SC(C)(C)C3C(=O)O)c2ccccc2)CSC1=S` (stereo not given in full), the GI50 in assay [1] is > 100 µM (inactive); in assay [2], 70.5 µM (inactive); in assay [3], 54 µM (inactive); in assay [8], > 100 µM (inactive); in [5] it was 84.1 µM (inactive); in assay [9] it was > 100 µM (inactive). The GI50 was 48.8 µM (inactive) in [6] and > 100 µM (inactive) in [7].
For the compound `COc1cc2c(cc1OC)C(=O)C(C1=C(SC(=N)N)C(=O)c3cc(OC)c(OC)cc31)C2` (stereo not given), the GI50 in assay [1], in assay [2], in assay [3], in [8], in [5] and in [6] was > 100 µM (inactive) throughout. Besides, in assay [7], the GI50 is > 100 µM (inactive).
In the case of `NC(CCSC(F)F)C(=O)O` (stereo not given), the GI50 is > 100 µM (inactive) in assay [1]; > 100 µM (inactive) in [2]; 65.3 µM (inactive) in assay [3]; > 100 µM (inactive) in assay [8]; > 100 µM (inactive) in assay [5]; > 100 µM (inactive) in assay [6]. For the same compound, the GI50 in assay [7] is > 100 µM (inactive).
In the case of `CCOc1ccc(/C=C/C(=O)c2sc(NNC(C)=O)nc2C)cc1`, the GI50 in [1], in [3], in assay [8], in [5], in assay [9] and in [6] was > 100 µM (inactive) throughout.
In the case of `O=C1O[B-](c2ccccc2)(c2ccccc2)[NH2+]C1CS` (stereo not given), the GI50 in assay [1] is 35.3 µM (inactive); in assay [2] it was 39.9 µM (inactive); in [3] it was 34.9 µM (inactive); in assay [8], 65.9 µM (inactive); in [4], 50.8 µM (inactive); in assay [5], 33 µM (inactive). The GI50 was > 100 µM (inactive) in [9], 34.9 µM (inactive) in assay [6] and > 100 µM (inactive) in assay [7].
In the case of `CCOC(=O)N[C@@H]1C(CC(=O)OC)O[C@H]2OC(C)(C)O[C@H]21` (stereo not given in full), the GI50 in [1], in assay [2], in [3], in [8], in assay [4] and in assay [5] was > 100 µM (inactive) throughout. The GI50 in assay [9], in assay [6] and in [7] was > 100 µM (inactive) each time.
